The record followed here is ChEMBL document CHEMBL5370623, “Discovery of Quinazoline-2,4(1H,3H)-dione Derivatives Containing a Piperizinone Moiety as Potent PARP-1/2 Inhibitors─Design, Synthesis, In Vivo Antitumor Activity, and X-ray Crystal Structure Analysis” (J Med Chem, 2023).

Each structure is given as a SMILES string.

Experiment [1] concerns the target Poly [ADP-ribose] polymerase 2 (Homo sapiens, UniProt Q9UGN5). Put plainly: Inhibition of PARP2 (unknown origin).
For experiment [2], the target named is Poly [ADP-ribose] polymerase 1 (Homo sapiens, UniProt P09874).
Sequence of Poly [ADP-ribose] polymerase 1 (P09874 whole entry): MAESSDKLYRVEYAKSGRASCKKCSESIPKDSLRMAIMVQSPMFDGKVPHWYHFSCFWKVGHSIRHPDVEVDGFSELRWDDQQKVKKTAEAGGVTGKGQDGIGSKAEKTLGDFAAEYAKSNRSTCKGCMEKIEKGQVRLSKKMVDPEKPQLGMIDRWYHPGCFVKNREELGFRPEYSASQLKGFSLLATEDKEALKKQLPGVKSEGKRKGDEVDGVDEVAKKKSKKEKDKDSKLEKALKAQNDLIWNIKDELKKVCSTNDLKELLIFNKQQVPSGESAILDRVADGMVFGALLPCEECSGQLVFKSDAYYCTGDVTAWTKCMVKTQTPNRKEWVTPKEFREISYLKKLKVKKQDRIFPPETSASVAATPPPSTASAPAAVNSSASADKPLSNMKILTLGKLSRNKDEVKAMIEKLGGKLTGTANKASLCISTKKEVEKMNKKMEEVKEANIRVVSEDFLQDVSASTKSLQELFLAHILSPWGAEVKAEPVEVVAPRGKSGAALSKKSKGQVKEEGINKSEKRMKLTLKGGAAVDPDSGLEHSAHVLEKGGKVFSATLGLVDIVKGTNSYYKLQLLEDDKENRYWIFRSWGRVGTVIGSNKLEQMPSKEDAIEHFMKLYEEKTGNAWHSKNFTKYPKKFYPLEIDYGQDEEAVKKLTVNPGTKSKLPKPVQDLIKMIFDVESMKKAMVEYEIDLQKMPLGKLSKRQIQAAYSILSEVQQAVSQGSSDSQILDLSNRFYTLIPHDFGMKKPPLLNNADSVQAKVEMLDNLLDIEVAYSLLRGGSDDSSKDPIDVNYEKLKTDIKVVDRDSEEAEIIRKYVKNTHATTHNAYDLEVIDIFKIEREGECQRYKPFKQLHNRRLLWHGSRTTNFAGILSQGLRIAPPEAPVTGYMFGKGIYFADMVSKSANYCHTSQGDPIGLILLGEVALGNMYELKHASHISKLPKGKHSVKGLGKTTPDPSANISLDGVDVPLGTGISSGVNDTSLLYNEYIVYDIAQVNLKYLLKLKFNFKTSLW
Description: Inhibition of PARP1 (unknown origin)

Sequence of Poly [ADP-ribose] polymerase 2 (Q9UGN5 whole entry): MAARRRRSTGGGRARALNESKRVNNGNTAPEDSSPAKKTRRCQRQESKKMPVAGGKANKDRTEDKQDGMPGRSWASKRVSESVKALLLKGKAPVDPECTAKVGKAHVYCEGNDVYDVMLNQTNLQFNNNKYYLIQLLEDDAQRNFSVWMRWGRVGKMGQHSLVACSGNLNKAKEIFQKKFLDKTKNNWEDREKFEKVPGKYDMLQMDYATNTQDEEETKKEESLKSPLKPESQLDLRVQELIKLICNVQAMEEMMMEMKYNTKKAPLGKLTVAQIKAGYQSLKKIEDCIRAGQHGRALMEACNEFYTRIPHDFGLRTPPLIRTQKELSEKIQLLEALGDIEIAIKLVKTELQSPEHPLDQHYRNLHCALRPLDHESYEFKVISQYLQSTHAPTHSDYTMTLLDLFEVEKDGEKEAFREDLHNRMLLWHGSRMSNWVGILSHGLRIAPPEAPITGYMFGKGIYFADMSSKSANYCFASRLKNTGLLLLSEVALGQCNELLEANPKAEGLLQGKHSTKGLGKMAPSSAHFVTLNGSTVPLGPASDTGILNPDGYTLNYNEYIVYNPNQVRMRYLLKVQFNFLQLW

By IC50 is commonly meant the concentration needed to halve the response being measured. Read a low IC50 as higher potency. In the case of `C[C@]12CCCN1CC1=NNC(=O)c3cc(F)cc4[nH]c2c1c34` [PAMIPARIB], half-maximal inhibition in experiment [1] (IC50) required 0.3 nM. In other words, the sub-nanomolar range.

Consider `O=C(c1cc(Cc2n[nH]c(=O)c3ccccc23)ccc1F)N1CCn2c(nnc2-c2ccc(Br)o2)C1`, for which the IC50 in experiment [2] was below 0.001 nM.
